Laboratory results: patent publication US20230107216A1, “PANTETHEINE DERIVATIVES AND USES THEREOF” (Comet Therapeutics, Inc., priority 2018, published 2023)
Read-outs that look alike come from different tables or passages of the source.

Tests used:
HepG2 cells = test: Mitochondrial membrane potential (MITO-ID MP detection Kit); assay type: cell-based; conditions: Homo sapiens, 168 h, 7 days; for activation at 10 µM: read-out: % increase in Mitochondrial Membrane Potential
Method in brief: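 Cells plated at 160000 cells/mL in DMEM with 10% FBS and 1% Pen-Strep, adhered overnight at 37° C., 5% CO2. Exposure to test compounds (50-10 μM) or 0.2% DMSO for 7 days without media change; membrane potential measured with MITO-ID MP detection kit per manufacturer.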

[1] = system: primary fibroblasts (healthy controls and PA, MMA, BCKDK, PDH, VLCAD, LS, PC, GA, VLCFA, KSS, FXN, HD); test: Measurement of ROS (H2DCFDA) in primary fibroblasts; assay type: cell-based, human; conditions: procedure Example 812; for inhibition at 10 µM: Homo sapiens
Method in brief: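 Patient and healthy-control primary fibroblasts switched to supplemented DMEM 24 h before assay, then treated with compound (10 μM) plus H2DCFDA (22 μM) for 2 h (PA, MMA lines) or 24 h (other lines). Kinetic fluorescence at 492/527 nm over 60 min; only live cells analysed.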

[2] = read-out: % decrease in Mitochondrial Membrane Potential
[3] = Fibroblast, BCKD GM00612, Assay Condition A, read-out: Decreased ROS by at least 10%
[4] = Fibroblast, VLCFA GM13262, Assay Condition C, read-out: Decreased ROS by at least 30%
[5] = FXN GM04078, Assay Condition C, read-out: Decreased ROS by at least 10%
[6] = FXN GM04078, Assay Condition C, read-out: Decreased ROS by at least 30%
[7] = Fibroblast, VLCAD GM17475, Assay Condition C, read-out: Decreased ROS by at least 10%
[8] = Fibroblast, VLCAD GM17475, Assay Condition C, read-out: Decreased ROS by at least 30%
[9] = Fibroblast, BCKD GM00649, Assay Condition C, read-out: Decreased ROS by at least 30%
[10] = Fibroblast, PDH GM01503, Assay Condition C, read-out: Decreased ROS by at least 10%
[11] = Fibroblast, BCKD GM00649, Assay Condition C, read-out: Decreased ROS by at least 10%
[12] = Fibroblast, PDH GM01503, Assay Condition C, read-out: Decreased ROS by at least 30%
[13] = Fibroblast, NPC1 GM22879, Assay Condition C, read-out: Decreased ROS by at least 30%

COC(=O)CC[C@H](N)C(=O)SCCNC(=O)CCNC(=O)[C@H](O)C(C)(C)CO [Compound 411]
activation at 10 µM (HepG2 cells; 10 uM): 10% | inhibition at 50 µM (HepG2 cells; [2]): > 20% | inhibition at 10 µM [1, 3]: ≥ 10% | inhibition at 10 µM [1, 4]: ≥ 30% | inhibition at 10 µM [1, 5]: ≥ 10% | inhibition at 10 µM [1, 6]: ≥ 30%

CC[C@@H](O)CC(=O)SCCNC(=O)CCNC(=O)[C@H](O)C(C)(C)CO [Compound 1245, (2R)-2,4-dihydroxy-N-{2-[(2-{[(3R)-3-hydroxypentanoyl]sulfanyl}ethyl)carbamoyl]ethyl}-3,3-dimethylbutanamide]
inhibition at 10 µM [1, 7]: ≥ 10% | inhibition at 10 µM [1, 8]: ≥ 30%

CC(C)(CO)[C@@H](O)C(=O)NCCC(=O)NCCSC(=O)CC(=O)CCC(=O)O [Compound 2, 6-[(2-[3-[(2R)-2,4-dihydroxy-3,3-dimethylbutanamido]propanamido]ethyl)sulfanyl]-4,6-dioxohexanoic acid]
inhibition at 10 µM [1, 3]: ≥ 10% | inhibition at 10 µM [1, 9]: ≥ 30% | inhibition at 10 µM [1, 5]: ≥ 10% | inhibition at 10 µM [1, 6]: ≥ 30%

CC(=O)OCC(C)(C)[C@@H](O)C(=O)NCCC(=O)NCCSC(=O)CC(=O)CCC(=O)O [Compound 140, 6-[(2-[3-[(2R)-4-(acetyloxy)-2-hydroxy-3,3-dimethylbutanamido]propanamido]ethyl)sulfanyl]-4,6-dioxohexanoic acid]
inhibition at 10 µM ([1]; Fibroblast, Leigh GM13411, Assay Condition C, read-out: Decreased ROS by at least 30%): ≥ 30% | inhibition at 10 µM [1, 10]: ≥ 10%

COC(=O)CC(C(C)=O)C(=O)SCCNC(=O)CCNC(=O)[C@H](O)C(C)(C)CO (stereo partly drawn) [Compound 410]
inhibition at 10 µM [1, 9]: ≥ 30% | inhibition at 10 µM ([1]; Fibroblast, MMA Tsi 5224, Assay Condition A, read-out: Decreased ROS by at least 10%): ≥ 10% | inhibition at 10 µM [1, 5]: ≥ 10% | inhibition at 10 µM [1, 6]: ≥ 30%

CC(=O)SCCNC(=O)CCNC(=O)[C@H](O)C(C)(C)COC(=O)CN [Compound 560, (3R)-3-[(2-[[2-(acetylsulfanyl)ethyl]carbamoyl]ethyl)carbamoyl]-3-hydroxy-2,2-dimethylpropyl 2-aminoacetate]
inhibition at 10 µM [1, 5]: ≥ 10%

CC(O)CC(O)CC(=O)SCCNC(=O)CCNC(=O)[C@H](O)C(C)(C)CO (stereo partly drawn) [Compound 400]
activation at 10 µM (HepG2 cells; 10 uM): > 20% | inhibition at 10 µM [1, 11]: ≥ 10% | inhibition at 10 µM [1, 9]: ≥ 30% | inhibition at 10 µM [1, 5]: ≥ 10% | inhibition at 10 µM [1, 6]: ≥ 30%

C[C@H](O)CC(=O)CC(=O)SCCNC(=O)CCNC(=O)[C@H](O)C(C)(C)CO [Compound 1306, (2R)-2,4-dihydroxy-N-[2-[(2-[[(5S)-5-hydroxy-3-oxohexanoyl]sulfanyl]ethyl)carbamoyl]ethyl]-3,3-dimethylbutanamide]
Decreased ROS by at least 30% ([1]; Healthy GM05659, Assay Condition A): ≥ 30% | Decreased ROS by at least 30% ([1]; Healthy GM23974, Assay Condition A): ≥ 30% | inhibition at 10 µM [1, 10]: ≥ 10% | inhibition at 10 µM [1, 12]: ≥ 30% | inhibition at 10 µM [1, 5]: ≥ 10% | inhibition at 10 µM [1, 6]: ≥ 30%

CC(O)CC(O)CC(O)CC(=O)SCCNC(=O)CCNC(=O)[C@H](O)C(C)(C)CO (stereo partly drawn) [Compound 401]
activation at 10 µM (HepG2 cells; 10 uM): > 10% | inhibition at 10 µM [1, 7]: ≥ 10% | inhibition at 10 µM [1, 8]: ≥ 30%

CC(C)C(=O)CC(=O)SCCNC(=O)CCNC(=O)[C@H](O)C(C)(C)CO [Compound 1239, (R)—S-(2-(3-(2,4-dihydroxy-3,3-dimethylbutanamido)propanamido)ethyl) 4-methyl-3-oxopentanethioate]
inhibition at 10 µM [1, 3]: ≥ 10% | inhibition at 10 µM [1, 4]: ≥ 30% | inhibition at 10 µM [1, 5]: ≥ 10% | inhibition at 10 µM [1, 6]: ≥ 30%

CC(C(=O)SCCNC(=O)CCNC(=O)[C@H](O)C(C)(C)CO)[C@@H](C)O (stereo partly drawn) [Compound 1244, (2R)-2,4-dihydroxy-N-{2-[(2-{[(3R)-3-hydroxy-2-methylbutanoyl]sulfanyl}ethyl)carbamoyl]ethyl}-3,3-dimethylbutanamide]
inhibition at 10 µM [1, 3]: ≥ 10% | inhibition at 10 µM [1, 4]: ≥ 30%

C[C@@H](O)CC(=O)CC(=O)SCCNC(=O)CCNC(=O)[C@H](O)C(C)(C)CO [Compound 42, (2R)-2,4-dihydroxy-N-[2-[(2-[[(5R)-5-hydroxy-3-oxohexanoyl]sulfanyl]ethyl)carbamoyl]ethyl]-3,3-dimethylbutanamide]
inhibition at 10 µM [1, 13]: ≥ 30% | inhibition at 10 µM [1, 10]: ≥ 10%

CC(C)(COC(=O)CCC(=O)O)[C@@H](O)C(=O)NCCC(=O)NCCS [Compound 1310, (R)-4-(3-hydroxy-4-((3-((2-mercaptoethyl)amino)-3-oxopropyl)amino)-2,2-dimethyl-4-oxobutoxy)-4-oxobutanoic acid]
activation at 10 µM (HepG2 cells; 10 uM): 20% | inhibition at 50 µM (HepG2 cells; [2]): > 30% | inhibition at 10 µM [1, 3]: ≥ 10% | inhibition at 10 µM [1, 4]: ≥ 30%

C[C@H](CC(=O)SCCNC(=O)CCNC(=O)[C@H](O)C(C)(C)CO)OC(=O)CCC(=O)O [Compound 1243, 4-{[(2R)-4-[(2-{3-[(2R)-2,4-dihydroxy-3,3-dimethylbutanamido]propanamido}ethyl)sulfanyl]-4-oxobutan-2-yl]oxy}-4-oxobutanoic acid]
inhibition at 10 µM [1, 11]: ≥ 10% | inhibition at 10 µM [1, 9]: ≥ 30% | inhibition at 10 µM [1, 5]: ≥ 10% | inhibition at 10 µM [1, 6]: ≥ 30%

COC(=O)CCC(=O)SCCNC(=O)CCNC(=O)[C@H](O)C(C)(C)COC(C)=O [Compound 138]
inhibition at 10 µM ([1]; Fibroblast, NPC1 GM22879, Assay Condition C, read-out: Decreased ROS by at least 10%): ≥ 10% | inhibition at 10 µM [1, 13]: ≥ 30% | inhibition at 10 µM [1, 5]: ≥ 10%

CC(C)=CC(=O)SCCNC(=O)CCNC(=O)[C@H](O)C(C)(C)CO [Compound 37, S-2-{3-[(R)-2,4-dihydroxy-3,3-dimethylbutyrylamino]propionylamino}ethyl 3-methyl-2-butenethioate]
inhibition at 10 µM ([1]; Fibroblast, VLCFA GM13262, Assay Condition C, read-out: Decreased ROS by at least 10%): ≥ 10% | inhibition at 10 µM [1, 4]: ≥ 30%

CC(C)(CO)[C@@H](O)C(=O)NCCC(=O)NCCSC(CC(=O)OCC[N+](C)(C)C)C(=O)O (stereo partly drawn) [Compound 51, [2-([3-carboxy-3-[(2-[3-[(2R)-2,4-dihydroxy-3,3-dimethylbutanamido]propanamido]ethyl)sulfanyl]propanoyl]oxy)ethyl]trimethylazanium]
activation at 10 µM (HepG2 cells; 10 uM): > 10%

CCC(=O)CC(=O)SCCNC(=O)CCNC(=O)[C@H](O)C(C)(C)CO [Compound 382, (2R)-2,4-dihydroxy-3,3-dimethyl-N-[2-([2-[(3-oxopentanoyl)sulfanyl]ethyl]carbamoyl)ethyl]butanamide]
inhibition at 10 µM [1, 10]: ≥ 10% | inhibition at 10 µM [1, 8]: ≥ 30% | inhibition at 10 µM [1, 5]: ≥ 10% | inhibition at 10 µM [1, 6]: ≥ 30%

CCCCCCC(=O)SCCNC(=O)CCNC(=O)[C@H](O)C(C)(C)CO [Compound 372, (2R)—N-(2-[[2-(heptanoylsulfanyl)ethyl]carbamoyl]ethyl)-2,4-dihydroxy-3,3-dimethylbutanamide]
inhibition at 10 µM [1, 5]: ≥ 10% | inhibition at 10 µM [1, 6]: ≥ 30%

CC(C)(CO)[C@@H](O)C(=O)NCCC(=O)NCCSC(=O)C1CCC(=O)N1 (stereo partly drawn) [Compound 1227, S-2-{3-[(R)-2,4-dihydroxy-3,3-dimethylbutyrylamino]propionylamino}ethyl 5-oxo-2-pyrrolidinecarbothioate]
inhibition at 10 µM (HepG2 cells; 10 uM, read-out: % decrease in Mitochondrial Membrane Potential): > 30%

C/C=C/C(=O)SCCNC(=O)CCNC(=O)[C@H](O)C(C)(C)COP(=O)(O)O [Compound 82, (R)—S-(2-(3-(2-hydroxy-3,3-dimethyl-4-(phosphonooxy)butanamido)propanamido)ethyl) (E)-but-2-enethioate]
activation at 10 µM (HepG2 cells; 10 uM): 10% | inhibition at 50 µM (HepG2 cells; [2]): > 20%

CC(C)(CO)[C@@H](O)C(=O)NCCC(=O)NCCSC(=O)CCCO [Compound 1304, (2R)-2,4-dihydroxy-N-[2-([2-[(4-hydroxybutanoyl)sulfanyl]ethyl]carbamoyl)ethyl]-3,3-dimethylbutanamide]
inhibition at 10 µM [1, 10]: ≥ 10% | inhibition at 10 µM [1, 12]: ≥ 30%
